Laboratory results taken from patent US8211483B2, “Composition comprising starch or dietary fiber from gramineae plant for prevention and treatment of ischemic diseases and degenerative brain disease” (Hypoxi Co., Ltd., priority 2007, dated 2012).

Experiments:
SH-SY5Y cells = test: MTT assay, beta-amyloid-induced cytotoxicity in SH-SY5Y cells; type: cell-based, human; details: 15 microM beta-amyloid (alone 60.4%), p<0.05, FIG. 3e; for viability at 250 µg/mL: Homo sapiens, 250 microgram/ml, read-out: cell viability
Procedure: To identify the neuroprotective effect of inventive crude extract, starch and total dietary fiber on the cytotoxicity induced by beta-amyloid, which is regarded as one of the main causes of Alzheimer's disease, the following MTT assay was performed by the procedure disclosed in the literature (Hoffman R. M., Cell Biology (Celis J E (Ed.), Vol. 1, pp 369-370, Academic Press, New York, 1994) with minor modification.
SH-SY5Y cells (human neuroblastoma cell line, ATCC CRL-2266, 4×10^4 cells/300 microliter/well) were seeded onto 48 well plates and incubated in Dulbecco's modified Eagle Medium/F12 90% medium (Invitrogen, USA) supplemented with penicillin G sodium (100 Units/L, Invitrogen, USA), streptomycin sulfate (100 mg/L, Invitrogen, USA) and 10% (w/v) fetal bovine serum (Invitrogen, USA); incubated at 37° C. in 5% CO2-95% air incubator for 48 hours. After changing the media, the cells were treated with beta-amyloid to the final concentrations of 0, 2.5, 7.5 and 25 microM for 24 hours in the absence (designated as Aβ25-35 alone group hereinafter) or presence with inventive starch isolated from Triticum aestivum L. (final concentration: 125 microgram/ml; designated as A25-35+SW group hereinafter) or soluble starch (final concentration: 125 microgram/ml; designated as A25-35+SS group hereinafter) which were made from 50 microgram/ml stock solutions in DMSO (See FIGS. 3a & 3b). After incubation, cells were treated with MTT solution (final concentration of 1 mg/ml) for 2 hours. The dark blue formazan in viable cells was dissolved in DMSO and absorbance at 540 nm was measured by a microplate reader (FLUOstar OPTIMA, BMG LABTECH, GERMANY).
Based on the above-mentioned result, to further examine the protective effects of the crude extract of Triticum aestivum L. or starches isolated from Gramnieae plants against the beta-amyloid-induced cytotoxicity, the concentration of beta-amyloid was fixed to 25 microM. The crude extract of Triticum aestivum L. (HY6228, shown as HY in FIG. 3c; 250 microgram/ml) and starches isolated from Gramnieae plants (SS, SC, SR and SW; 125 microgram/ml) were added thereto to incubation (See FIG. 3c). We also have examined the cell viability improving effect of total dietary fiber (TDF; 500, 1000 microgram/ml) in the presence of 10 microM of beta-amyloid (See FIG. 3d).
In addition, arabinoxylan (AX; 500 microgram/ml), arabinose (Ara; 250 microgram/ml), xylose (Xyl; 250 microgram/ml) and beta-glucan (b-glu; 20 microgram/ml) were added to the media in the presence of 15 microM beta-amyloid (See FIG. 3e).

[1] = tested on: myocardial infarction-induced rat model; test: Myocardial infarction-induced rat model (LAD ischemia-reperfusion), oral administration; type: in vivo; details: for size of infarcted area reduced by: 10 mg/kg/day oral, vs control 50.6%, p<0.05, FIG. 5c; for IA (% AAR): 10 mg/kg/day with food from three days before ischemia, control 50.6%, FIG. 5c
Procedure: The therapeutic efficacy of inventive starch and total dietary fiber on myocardial infarction was measured in myocardial infarction-induced rat model, using experiment rats prepared in Reference Example 1, in accordance with the procedure disclosed in the literature (Haisong J et al., Circulation, 97, pp 892-899, 1998), with minor modification.
SD rats prepared in Reference Example 1 were anesthetized with 10 mg/kg ketamine (Yuhan Corp., KOREA) and 5 mg/kg xylazine (Sigma, USA) and intubated endotracheally. The rats were connected to a respirator through a tracheotomy, and the heart was rapidly exteriorized through a left thoracotomy and pericardial incision. The upper region of left coronary artery (LAD) was ligated by passing a 5-0 prolene thread under LAD and tightening polyethylene tubing 50 (PE 50), resulting in ischemia. After 30 min of ischemia, 3 hours of reperfusion followed, after the tightened PE 50 was loosened. After the ischemia-reperfusion, the PE 50 was tightened again to induce ischemia, and then 2 ml of 1% Evans blue dye solution was infused intravenously to circulate whole body. Then the heart was isolated, cut into the width of 2-3 mm after the right atrium and right ventricle of the heart were removed. Then the stained (LV-AAR) and unstained area (AAR) of cross sectioned tissue was measured by using image analysis system (Quantity One 4.2, Bio-Rad, USA) to calculate the area at risk (AAR/LV, %). Then, the tissue was stained with 1% TTC (2,3,5-triphenyltetrazolium chloride, Sigma, USA) at 37° C. for 15 mins, fixed with 10% formalin solution. The infarcted area (IA/LV, %) was determined by measuring necrotic white area (IA) and total left ventricle area (LV). The ratio of IA to AAR of test samples and control group was compared to test efficacy.
The inventive starch, total dietary fiber, and representative components of the fiber mixed with food were administered orally, and the size of infarcted area was measured. To determine the proper dose with safety and maximum efficacy at the same time, the minimum dose calculated from the result obtained in Experimental Example 1 was set as a starting point, and the dose was increased according to two-fold increasing method, i.e., 100, 200 and 400 mg/kg.
Three days before the induction of ischemia, 400 mg/kg/day of HY6228 or inventive starch, or 10 mg/kg/day of inventive total dietary fiber, or 10 mg/kg/day of its components, such as arabinoxylan, beta-glucan, arabinose and xylose, was fed with 20 g of food with free access. After induction of myocardial infarction with 3 hours of reperfusion, the infarcted area was measured, the value of IA (% AAR) was calculated, and then efficacy of the inventive starch and total dietary fiber was compared with each other.

[2] = tested on: vascular dementia-induced rat model; test: Vascular dementia-induced rat model (BCCAO), water-maze test; type: in vivo; details: 50 mg/kg fed for 1 week, FIG. 8b, 8c
Procedure: The therapeutic efficacy of inventive starch and total dietary fiber of the present invention on vascular dementia was measured in vascular dementia-induced rat model, using experiment rats prepared in Reference Example 1, in accordance with the procedure disclosed in the literature (Cho K O et al., J. Neurosci. Res., 83, pp 285-291, 2006), with minor modification.
The SD rats prepared in Reference Example 1 were anesthetized by inhalation using enflurane (Choongwae Pharm. Corp., KOREA). Two common carotid arteries were exposed by surgery and tied with thread using BCCAO (bilateral common carotid artery occlusion) method to reduce the blood flow rate into brain for 4 weeks. And then water-maze test disclosed in Experimental Example 6 was performed for 5 days.
7 days after the two common carotid arteries were tied, the rats were started to be fed with HY6228 (200 mg/kg), inventive starch (SW; 200 mg/kg), TDF (50 mg/kg) and arabinoxlyan (50 mg/kg) therewith for 1 week, for which the mean escape latency was measured.

Compound	viability at 250 µg/mL (SH-SY5Y cells) [%]	size of infarcted area reduced by [1] [%]	IA (% AAR) [1] [%]	mean escape latency [2]	cell viability (SH-SY5Y cells; 500 microgram/ml) [%]	cell viability (SH-SY5Y cells; 20 microgram/ml) [%]
O=C[C@@H](O)[C@H](O)[C@H](O)CO [arabinose]	71.1	14.2	43.4			
arabinoxylan		16.4	42.3	reduced the mean escape latency	75.5	
beta-glucan		13.4	43.8			70
O=C[C@H](O)[C@@H](O)[C@H](O)CO [xylose]	72.1	16.8	42.1			
